Target: HIS-TGFβR1 T204D (Homo sapiens (Human), UniProt P36897, T204D)
Test: HTRF probe-displacement assay, HIS-TGFβR1 T204D
Assay type: binding
Conditions: 1 hour at room temperature

HIS-TGFβR1 T204D, sequence (P36897 34-503 T204D): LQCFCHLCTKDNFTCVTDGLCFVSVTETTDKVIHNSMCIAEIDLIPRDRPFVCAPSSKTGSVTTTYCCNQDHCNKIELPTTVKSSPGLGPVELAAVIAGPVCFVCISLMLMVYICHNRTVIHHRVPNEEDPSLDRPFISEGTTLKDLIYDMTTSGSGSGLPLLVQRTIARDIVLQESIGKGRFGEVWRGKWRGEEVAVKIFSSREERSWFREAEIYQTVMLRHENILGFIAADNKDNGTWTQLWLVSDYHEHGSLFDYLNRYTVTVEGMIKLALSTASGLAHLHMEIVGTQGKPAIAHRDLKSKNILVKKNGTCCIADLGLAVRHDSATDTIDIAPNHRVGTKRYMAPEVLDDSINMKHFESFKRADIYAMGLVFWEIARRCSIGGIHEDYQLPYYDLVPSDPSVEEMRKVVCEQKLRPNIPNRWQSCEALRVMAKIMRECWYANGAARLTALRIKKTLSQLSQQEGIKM

IC50 [nM] | Structure (SMILES)
5 | Cc1nc(-c2nc(Nc3ccncc3C(=O)NCCN3CCCCC3)c3cccn3n2)ccc1F [Example 141, 4-{[2-(5-fluoro-6-methylpyridin-2-yl)pyrrolo[2,1-f][1,2,4]triazin-4-yl]amino}-N-[2-(piperidin-1-yl)ethyl]pyridine-3-carboxamide]
0.4 | CC(=O)Nc1cc(Nc2nc(-c3ccccn3)nn3ccc(CN4CCC(F)(F)CC4)c23)ccn1 [Example 24, N-[4-({5-[(4,4-difluoropiperidin-1-yl)methyl]-2-(pyridin-2-yl)pyrrolo[2,1-f][1,2,4]triazin-4-yl}amino)pyridin-2-yl]acetamide]
56 | COc1cccc(-c2nc(Nc3ccncc3F)c3cc(NS(C)(=O)=O)cn3n2)n1 [Example 22, N-{4-[(3-fluoropyridin-4-yl)amino]-2-(6-methoxypyridin-2-yl)pyrrolo[2,1-f][1,2,4]triazin-6-yl}methanesulfonamide]
12 | CS(=O)(=O)Nc1cccc(-c2nc(Nc3ccncc3)c3cccn3n2)n1 [Example 8, N-(6-{4-[(pyridin-4-yl)amino]pyrrolo[2,1-f][1,2,4]triazin-2-yl}pyridin-2-yl)methanesulfonamide]
360 | COc1cccc(-c2nc(Nc3ccnc(NCCC(C)(C)O)c3)c3cccn3n2)n1 [Example 134, 4-[(4-{[2-(6-methoxypyridin-2-yl)pyrrolo[2,1-f][1,2,4]triazin-4-yl]amino}pyridin-2-yl)amino]-2-methylbutan-2-ol]
8.6 | O=C(NCCCN1CCS(=O)(=O)CC1)c1cnccc1Nc1nc(-c2cccc(C(F)F)n2)nn2cccc12 [Example 168, 4-({2-[6-(difluoromethyl)pyridin-2-yl]pyrrolo[2,1-f][1,2,4]triazin-4-yl}amino)-N-[3-(1,1-dioxo-1,4-thiomorpholin-4-yl)propyl]pyridine-3-carboxamide]
7.9 | Cc1cccc(-c2nc(Nc3ccncc3C(=O)NC[C@H](O)CO)c3cccn3n2)n1 [Example 158, N-[(2S)-2,3-dihydroxypropyl]-4-{[2-(6-methylpyridin-2-yl)pyrrolo[2,1-f][1,2,4]triazin-4-yl]amino}pyridine-3-carboxamide]
1.4 | CN(C)CCNCc1ccn2nc(-c3ccccn3)nc(Nc3ccncc3F)c12 [Example 280, N-[5-({[2-(dimethylamino)ethyl]amino}methyl)-2-(pyridin-2-yl)pyrrolo[2,1-f][1,2,4]triazin-4-yl]-3-fluoropyridin-4-amine]
< 0.25 | OCC1(CNCc2ccn3nc(-c4ccccn4)nc(Nc4ccncc4F)c23)COC1 [Example 296, (3-{[({4-[(3-fluoropyridin-4-yl)amino]-2-(pyridin-2-yl)pyrrolo[2,1-f][1,2,4]triazin-5-yl}methyl)amino]methyl}oxetan-3-yl)methanol]
660 | Cc1cc(Nc2nc(-c3cccc(C(F)(F)F)n3)nn3cccc23)ccn1 [Example 257, 2-methyl-N-{2-[6-(trifluoromethyl)pyridin-2-yl]pyrrolo[2,1-f][1,2,4]triazin-4-yl}pyridin-4-amine]
9 | COc1cccc(-c2nc(Nc3ccncc3F)c3c(CN4CCC(F)(F)CC4)ccn3n2)n1 [Example 25, N-{5-[(4,4-difluoropiperidin-1-yl)methyl]-2-(6-methoxypyridin-2-yl)pyrrolo[2,1-f][1,2,4]triazin-4-yl}-3-fluoropyridin-4-amine]
3.3 | CC(=O)Nc1cc(Nc2nc(-c3cccc(F)n3)nn3cccc23)c(F)cn1 [Example 339, N-(5-fluoro-4-{[2-(6-fluoropyridin-2-yl)pyrrolo[2,1-f][1,2,4]triazin-4-yl]amino}pyridin-2-yl)acetamide]
1.2 | OCCN1CCN(Cc2ccn3nc(-c4cccc(C(F)F)n4)nc(Nc4ccncc4F)c23)CC1 [Example 253, 2-[4-({2-[6-(difluoromethyl)pyridin-2-yl]-4-[(3-fluoropyridin-4-yl)amino]pyrrolo[2,1-f][1,2,4]triazin-5-yl}methyl)piperazin-1-yl]ethan-1-ol]
6 | CC(C)(O)CNCc1ccn2nc(-c3cccc(C(F)(F)F)n3)nc(Nc3ccncc3F)c12 [Example 124, 1-[({4-[(3-fluoropyridin-4-yl)amino]-2-[6-(trifluoromethyl)pyridin-2-yl]pyrrolo[2,1-f][1,2,4]triazin-5-yl}methyl)amino]-2-methylpropan-2-ol]
0.9 | O=C(CN1CCCC1)Nc1cc(Nc2nc(-c3cccc(C(F)F)n3)nn3cccc23)ccn1 [Example 33, N-[4-({2-[6-(difluoromethyl)pyridin-2-yl]pyrrolo[2,1-f][1,2,4]triazin-4-yl}amino)pyridin-2-yl]-2-(pyrrolidin-1-yl)acetamide]
1600 | COc1cccc(-c2nc(Nc3ccncc3F)c3cc(NC(=O)CN)cn3n2)n1 [Example 109, 2-amino-N-{4-[(3-fluoropyridin-4-yl)amino]-2-(6-methoxypyridin-2-yl)pyrrolo[2,1-f][1,2,4]triazin-6-yl}acetamide]

IC50 [nM] | Structure (SMILES)
7700 | COc1cccc(-c2nc(Nc3ccncc3F)c3cc(CNCCCN4CCS(=O)(=O)CC4)cn3n2)n1 [Example 209, 4-{3-[({4-[(3-fluoropyridin-4-yl)amino]-2-(6-methoxypyridin-2-yl)pyrrolo[2,1-f][1,2,4]triazin-6-yl}methyl)amino]propyl}-1,4-thiomorpholine-1,1-dione]
8.8 | CS(=O)(=O)Nc1cccc(-c2nc(Nc3ccncc3Cl)c3cccn3n2)n1 [Example 90, N-(6-{4-[(3-chloropyridin-4-yl)amino]pyrrolo[2,1-f][1,2,4]triazin-2-yl}pyridin-2-yl)methanesulfonamide]
3000 | COc1cccc(-c2nc(Nc3ccncc3NC(=O)CN3CCOCC3)c3cccn3n2)n1 [Example 212, N-(4-{[2-(6-methoxypyridin-2-yl)pyrrolo[2,1-f][1,2,4]triazin-4-yl]amino}pyridin-3-yl)-2-(morpholin-4-yl)acetamide]
1 | CN(C)C1CCC(NCc2ccn3nc(-c4ccccn4)nc(Nc4ccncc4F)c23)CC1 (stereo not drawn) [Example 245, 4-N-({4-[(3-fluoropyridin-4-yl)amino]-2-(pyridin-2-yl)pyrrolo[2,1-f][1,2,4]triazin-5-yl}methyl)-1-N, 1-N-dimethylcyclohexane-1,4-diamine]
8.2 | Fc1cnccc1Nc1nc(-c2cscn2)nn2cccc12 [Example 262, 3-fluoro-N-[2-(1,3-thiazol-4-yl)pyrrolo[2,1-f][1,2,4]triazin-4-yl]pyridin-4-amine]
22 | Cc1nc(-c2nc(Nc3ccncc3C(=O)NCCN3CCS(=O)(=O)CC3)c3cccn3n2)ccc1F [Example 35, N-[2-(1,1-dioxo-1,4-thiomorpholin-4-yl)ethyl]-4-{[2-(5-fluoro-6-methylpyridin-2-yl)pyrrolo[2,1-f][1,2,4]triazin-4-yl]amino}pyridine-3-carboxamide]
2.6 | Cc1cnc(CNCc2ccn3nc(-c4ccccn4)nc(Nc4ccncc4F)c23)cn1 [Example 305, 3-fluoro-N-[5-({[(5-methylpyrazin-2-yl)methyl]amino}methyl)-2-(pyridin-2-yl)pyrrolo[2,1-f][1,2,4]triazin-4-yl]pyridin-4-amine]
3.6 | Fc1cnccc1Nc1nc(-c2ccccn2)nn2ccc(CNCCC3CCCN3)c12 (stereo not drawn) [Example 270, 3-fluoro-N-[2-(pyridin-2-yl)-5-({[2-(pyrrolidin-2-yl)ethyl]amino}methyl)pyrrolo[2,1-f][1,2,4]triazin-4-yl]pyridin-4-amine]
3.9 | O=C(NCCO)c1cnccc1Nc1nc(-c2cccc(C(F)F)n2)nn2cccc12 [Example 192, 4-({2-[6-(difluoromethyl)pyridin-2-yl]pyrrolo[2,1-f][1,2,4]triazin-4-yl}amino)-N-(2-hydroxyethyl)pyridine-3-carboxamide]
1.4 | Cc1nc(-c2nc(Nc3ccnc(NC(=O)C4CC4)c3)c3cccn3n2)ccc1F [Example 345, N-(4-{[2-(5-fluoro-6-methylpyridin-2-yl)pyrrolo[2,1-f][1,2,4]triazin-4-yl]amino}pyridin-2-yl)cyclopropanecarboxamide]
480 | O=C(N[C@H]1CCCC[C@@H]1O)c1cnccc1Nc1nc(-c2cccc(C(F)F)n2)nn2cccc12 [Example 175, 4-({2-[6-(difluoromethyl)pyridin-2-yl]pyrrolo[2,1-f][1,2,4]triazin-4-yl}amino)-N-[(1S,2S)-2-hydroxycyclohexyl]pyridine-3-carboxamide]
650 | COc1cccc(-c2nc(Nc3ccnc(F)c3)c3c(C)ccn3n2)n1 [Example 96, 2-fluoro-N-[2-(6-methoxypyridin-2-yl)-5-methylpyrrolo[2,1-f][1,2,4]triazin-4-yl]pyridin-4-amine]
9.7 | COc1cccc(-c2nc(Nc3ccncc3F)c3c(CNCC(C)(C)O)ccn3n2)n1 [Example 118, 1-[({4-[(3-fluoropyridin-4-yl)amino]-2-(6-methoxypyridin-2-yl)pyrrolo[2,1-f][1,2,4]triazin-5-yl}methyl)amino]-2-methylpropan-2-ol]
360 | COc1cccc(-c2nc(Nc3ccncc3F)c3c(CCN4CCN(C)CC4)ccn3n2)n1 [Example 112, 3-fluoro-N-[2-(6-methoxypyridin-2-yl)-5-[2-(4-methylpiperazin-1-yl)ethyl]pyrrolo[2,1-f][1,2,4]triazin-4-yl]pyridin-4-amine]
1.2 | CC(=O)Nc1cc(Nc2nc(-c3ccccn3)nn3ccc(CN4CCN(CCO)CC4)c23)ccn1 [Example 250, N-{4-[(5-{[4-(2-hydroxyethyl)piperazin-1-yl]methyl}-2-(pyridin-2-yl)pyrrolo[2,1-f][1,2,4]triazin-4-yl)amino]pyridin-2-yl}acetamide]
5.3 | Fc1cnccc1Nc1nc(-c2ccccn2)nn2ccc(CNc3ccc4[nH]nnc4c3)c12 [Example 306, N-({4-[(3-fluoropyridin-4-yl)amino]-2-(pyridin-2-yl)pyrrolo[2,1-f][1,2,4]triazin-5-yl}methyl)-1H-1,2,3-benzotriazol-5-amine]

Structure (SMILES) | IC50 [nM]
CC(C)(C)OCCNC(=O)c1cnccc1Nc1nc(-c2cccc(C(F)F)n2)nn2cccc12 [Example 173, N-[2-(tert-butoxy)ethyl]-4-({2-[6-(difluoromethyl)pyridin-2-yl]pyrrolo[2,1-f][1,2,4]triazin-4-yl}amino)pyridine-3-carboxamide] | 48

Reference: patent US10336761B2, “TGFβ receptor antagonist” (BRISTOL-MYERS SQUIBB COMPANY, priority 2015, dated 2019)
